Usually IC50 stands for the point on the concentration scale where inhibition reaches its midpoint. A higher IC50 goes with a need for much substance. As a reminder, the Ki is a dissociation constant, usually derived from enzyme kinetics or from competition with a known ligand. A high value points to lower affinity.

The target of this assay is T1, 1,25-dihydroxyvitamin D(3) 24-hydroxylase, mitochondrial (Homo sapiens, UniProt Q07973).
T1 sequence (Q07973 whole entry): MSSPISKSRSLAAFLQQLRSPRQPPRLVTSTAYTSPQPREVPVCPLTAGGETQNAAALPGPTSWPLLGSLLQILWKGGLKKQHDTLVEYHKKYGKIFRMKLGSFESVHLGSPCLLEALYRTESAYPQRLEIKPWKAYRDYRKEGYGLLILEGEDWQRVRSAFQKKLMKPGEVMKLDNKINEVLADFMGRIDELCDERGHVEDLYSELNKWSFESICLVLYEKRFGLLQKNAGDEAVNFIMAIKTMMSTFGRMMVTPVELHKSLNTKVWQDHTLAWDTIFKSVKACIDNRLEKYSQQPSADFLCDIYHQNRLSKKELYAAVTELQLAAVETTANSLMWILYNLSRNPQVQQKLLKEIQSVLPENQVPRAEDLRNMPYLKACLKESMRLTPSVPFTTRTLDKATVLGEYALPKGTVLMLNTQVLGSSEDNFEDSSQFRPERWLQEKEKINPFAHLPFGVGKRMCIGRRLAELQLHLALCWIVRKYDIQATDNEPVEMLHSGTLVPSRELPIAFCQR
As to the kind of experiment: Inhibition of N-terminally MBP-fused human CYP24A1 by cell-free assay.
Consider `C(=C\c1cccc2c1ccn2CCCn1ccnc1)/c1ccccc1`, for which the IC50 came to 360 nM and the Ki worked out at 26 nM.

`COc1cc(/C=C/c2cccc3c2ccn3CCCn2ccnc2)cc(OC)c1`: the midpoint of inhibition, the IC50, lay at 440 nM and the affinity, expressed as Ki, was 31 nM.

As to `C(=C\c1cccc2c1ccn2CCCCn1ccnc1)/c1ccccc1`, the half-inhibitory concentration (IC50) amounted to 200 nM and the inhibition constant (Ki) stood at 14 nM.

The compound `COc1cc(/C=C/c2cccc3c2ccn3CCCCn2ccnc2)cc(OC)c1` had a half-inhibitory concentration (IC50) of 190 nM and an inhibition constant Ki of 14 nM.

As to `C(=C\c1ccc2c(ccn2CCCn2ccnc2)c1)/c1ccccc1`, the half-maximal inhibitory concentration (IC50) was found to be 520 nM and the inhibition constant Ki turned out to be 37 nM.

With `C(=C\c1ccc2c(ccn2CCCCn2ccnc2)c1)/c1ccccc1`, 520 nM corresponded to half-maximal inhibition (IC50) and the Ki stood at 37 nM.

`Cc1ccc(S(=O)(=O)NCCCn2ccc3c(/C=C/c4ccccc4)cccc32)cc1` came in with a 50% inhibitory concentration (IC50) of 4800 nM and a Ki of 340 nM.

In turn, `COc1cc(/C=C/c2cccc3c2ccn3CCCNS(=O)(=O)c2ccc(C)cc2)cc(OC)c1` had an IC50 of 10400 nM and a Ki of 730 nM.

As for `Cc1ccc(S(=O)(=O)NCCCCn2ccc3c(/C=C/c4ccccc4)cccc32)cc1`, the IC50 is 3300 nM and affinity was put at a Ki of 230 nM.

With `COc1cc(/C=C/c2cccc3c2ccn3CCCCNS(=O)(=O)c2ccc(C)cc2)cc(OC)c1`, half-maximal inhibition (IC50) required 10500 nM and affinity was put at a Ki of 740 nM.

In turn, `O=S(OCCCn1ccc2c(/C=C/c3ccccc3)cccc21)c1ccccc1` (stereo unspecified) came in with an IC50 of 7600 nM and a Ki of 540 nM.

`Cc1ccc(S(=O)(=O)OCCCn2ccc3c(/C=C/c4ccccc4)cccc32)cc1`: the IC50 is 9000 nM and the Ki was 640 nM.

For the compound `COc1cc(/C=C/c2cccc3c2ccn3CCCOS(=O)(=O)c2ccc(C)cc2)cc(OC)c1`, the IC50 came to 16900 nM and affinity was put at a Ki of 1190 nM.
